The source made the active and inactive calls. The rule behind the calls is not given here.
How the values were obtained:
[1] = target: T1, Hydroxycarboxylic acid receptor 3 (Homo sapiens, UniProt P49019); settings: CHO-K1; 30 pM
[2] = target: T1, Hydroxycarboxylic acid receptor 3; assay: Agonist activity at GPR109b receptor transfected in CHOK1 cells assessed as inhibition of forskolin-induced cAMP generation by HTRF assay; type: functional, cell-based, CHO-K1
[3] = target: Hydroxycarboxylic acid receptor 2 (Homo sapiens) (UniProt Q8TDS4); assay: Agonist activity at GPR109a receptor transfected in CHOK1 cells assessed as inhibition of forskolin-induced cAMP generation at 30 pM to 100 uM by HTRF assay; type: functional, cell-based; settings: CHO-K1
[4] = target: T1, Hydroxycarboxylic acid receptor 3; assay: Agonist activity at GPR109b receptor transfected in forskolin-stimulated CHOK1 cells assessed as cAMP generation at 10 uM by HTRF assay; type: functional, cell-based; settings: CHO-K1

T1 sequence (P49019 whole entry): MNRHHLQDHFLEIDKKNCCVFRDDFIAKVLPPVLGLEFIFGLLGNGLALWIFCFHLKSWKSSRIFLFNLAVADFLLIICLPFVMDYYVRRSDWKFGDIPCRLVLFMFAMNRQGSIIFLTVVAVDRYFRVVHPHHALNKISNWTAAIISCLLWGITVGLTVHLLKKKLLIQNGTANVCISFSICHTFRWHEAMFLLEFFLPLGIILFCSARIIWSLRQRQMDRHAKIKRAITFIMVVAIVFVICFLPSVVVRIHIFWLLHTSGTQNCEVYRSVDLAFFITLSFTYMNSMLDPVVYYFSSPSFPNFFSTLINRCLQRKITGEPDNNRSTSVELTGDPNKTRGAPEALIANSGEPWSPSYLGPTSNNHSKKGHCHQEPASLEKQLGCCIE
Sequence of Hydroxycarboxylic acid receptor 2 (Homo sapiens) (Q8TDS4 whole entry): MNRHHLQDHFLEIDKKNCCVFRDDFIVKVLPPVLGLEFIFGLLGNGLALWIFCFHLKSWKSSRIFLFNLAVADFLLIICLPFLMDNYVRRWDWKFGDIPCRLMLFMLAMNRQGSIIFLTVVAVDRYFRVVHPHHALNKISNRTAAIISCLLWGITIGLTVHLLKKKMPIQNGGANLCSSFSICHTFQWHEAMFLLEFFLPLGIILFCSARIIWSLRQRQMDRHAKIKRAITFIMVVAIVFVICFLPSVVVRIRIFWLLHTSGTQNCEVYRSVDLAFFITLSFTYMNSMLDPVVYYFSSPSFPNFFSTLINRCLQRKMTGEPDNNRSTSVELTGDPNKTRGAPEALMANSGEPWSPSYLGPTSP

Compound	EC50 [2] [µM]	also measured
Cc1ccc(CN(Cc2ccc(C)s2)c2cc(C(=O)O)n[nH]2)s1		pEC50 [1]: inactive
O=C(O)c1cc(N(Cc2ccccc2)Cc2ccccc2)[nH]n1	0.851	
O=C(O)c1cc(N(CC2CC2)CC2CC2)[nH]n1	3.98	pEC50 [3]: inactive
O=C(O)c1cc(N(Cc2ccsc2)Cc2ccco2)[nH]n1	> 10	
CC(C)CCN(CCC(C)C)c1cc(C(=O)O)n[nH]1	> 10	
O=C(O)c1cc(N(Cc2cccs2)Cc2cccs2)[nH]n1	0.257	
CCCC(C)Nc1cc(C(=O)O)n[nH]1 (stereo unspecified)	6.76	pEC50 [3]: inactive
CCCCCCN(CCCCCC)c1cc(C(=O)O)n[nH]1	> 10	
O=C(O)c1cc(N(Cc2ccoc2)Cc2ccsc2)[nH]n1		pEC50 [1]: inactive
O=C(O)c1cc(N(Cc2ccoc2)Cc2ccoc2)[nH]n1	8.91	pEC50 [3]: inactive
O=C(O)c1cc(N(Cc2ccc(F)cc2)Cc2ccsc2)[nH]n1		pEC50 [1]: inactive
O=C(O)c1cc(N(Cc2ccc(Br)s2)Cc2ccc(Br)s2)[nH]n1		pEC50 [1]: inactive
CCC(C)Nc1cc(C(=O)O)n[nH]1 (stereo unspecified)	4.47	pEC50 [3]: inactive
O=C(O)c1cc(N(Cc2ccsc2)Cc2cccs2)[nH]n1	0.141	
O=C(O)c1cc(N(Cc2ccccc2)Cc2ccsc2)[nH]n1	0.0145	
O=C(O)c1cc(N(Cc2cccc(F)c2)Cc2cccc(F)c2)[nH]n1	> 10	
CCCN(CCC)c1cc(C(=O)O)n[nH]1	8.32	
O=C(O)c1cc(NCc2ccccc2)[nH]n1		pEC50 [1]: inactive
O=C(O)c1cc(N(Cc2ccccc2F)Cc2ccccc2F)[nH]n1	8.71	pEC50 [3]: inactive
O=C(O)c1cc(N(CC2CCCCC2)CC2CCCCC2)[nH]n1		pEC50 [1]: inactive
C=CCNc1ccc(C(=O)O)cn1	0.0417	Activity [4]: 200%
O=C(O)c1cc(N(Cc2ccc(F)cc2)Cc2ccc(F)cc2)[nH]n1	> 10	pEC50 [3]: inactive
O=C(O)c1cc(N(Cc2ccsc2)Cc2ccsc2)[nH]n1	0.00316	
O=C(O)c1cc(N(CCc2ccccc2)CCc2ccccc2)[nH]n1	5.62	

Reference: ChEMBL document CHEMBL1152375 (Bioorg Med Chem Lett, 2009)
